# Key:
# [1] = system: TAZ-DEP MCF10A-TAZ tumor cells; assay: cell viability relative to DMSO control; higher = less cytotoxic; extreme values may be limits of the assay; settings: 72 h
# Description: (§1)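 TAZ-dependent (grown with 2 ug/ml dox) and TAZ-independent MCF10A-TAZ tumor-derived breast cancer stem-like cells were plated in 384-well plates and treated with serially diluted compounds (0.65-10 uM) for 72 h. Viability was read by resazurin assay and expressed as % of DMSO-treated control.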
# [2] = system: TAZ-IND MCF10A-TAZ tumor cells; assay: as above; settings: 72 h
# Description: as §1
SMILES,cell viability ([1]; 0.65 µM),cell viability ([1]; 1.25 µM),cell viability ([1]; 2.5 µM),cell viability ([1]; 5 µM),cell viability ([1]; 10 µM),cell viability ([2]; 0.65 µM),cell viability ([2]; 1.25 µM),cell viability ([2]; 2.5 µM),cell viability ([2]; 5 µM),cell viability ([2]; 10 µM)
O=C(/C=C/c1ccc2ccccc2n1)c1ccncc1 [PFK15],100%,100%,81%,47%,31%,98%,98%,99%,95%,97%
CCc1nc(N)nc(N)c1-c1ccc(Cl)cc1 [Pyrimethamine],100%,100%,98%,85%,56%,100%,100%,100%,100%,98%
"COc1cc(F)c(F)c(Nc2ccc(I)cc2F)c1NS(=O)(=O)C1(C[C@H](O)CO)CC1 [Refametinib (RDEA119, Bay 86-9766)]",53%,51%,51%,51%,50%,84%,82%,80%,77%,71%
CC(C)N(CCCNC(=O)Nc1ccc(C(C)(C)C)cc1)C[C@H]1O[C@@H](n2cc(Br)c3c(N)ncnc32)[C@H](O)[C@@H]1O [SGC 0946],89%,83%,78%,63%,-1%,94%,89%,79%,34%,1%
CC(C)(C)c1ccc(S(=O)(=O)NCc2ccc(C(=O)Nc3cccnc3)cc2)cc1 [STF-31],100%,100%,100%,99%,98%,99%,100%,100%,97%,96%
CNC(=O)c1cc(Oc2ccc(NC(=O)Nc3ccc(Cl)c(C(F)(F)F)c3)cc2)ccn1 [Sorafenib],100%,98%,92%,84%,72%,100%,99%,100%,98%,93%
N#CC(=C(/N)Sc1ccccc1N)/C(C#N)=C(\N)Sc1ccccc1N [U0126-EtOH],99%,94%,84%,70%,67%,95%,94%,89%,84%,79%
CNCc1ccc(-c2cc(-c3nc(-c4ccc(S(=O)(=O)C(C)C)cc4)cnc3N)on2)cc1 [VE-822],55%,37%,29%,23%,20%,96%,87%,81%,75%,69%
C=CC(=O)Nc1cccc(Oc2nc(Nc3ccc(N4CCN(C)CC4)cc3OC)ncc2Cl)c1 [WZ4002],90%,72%,67%,33%,23%,96%,97%,96%,75%,68%

# Source: the supplement of paper PMC8239392
